Entries after “also recorded” stand apart in the source; their conditions may differ.
Tested on: rhesus macaques
Assay: Hematology and blood chemistry before and after PET imaging
Type: in vivo

**Q.** How did the ALP (After 1–3 months) turn out when `O=C(O)C[18F]` [^18F-FACE, ^18F-fluoroacetate] was run?
**A.** 134.0±58.2 IU/L

**Q.** What about the ALT (After 1–3 months) of the same molecule?
**A.** 30.5±8.5 IU/L

**Q.** What about the AST (After 1–3 months) of the same molecule?
**A.** 28.7±3.4 IU/L

**Q.** And the Albumin (After 1–3 months)?
**A.** 3.4 ± 0.8 g/dL

**Q.** And the BUN (After 1–3 months)?
**A.** 17.9 ± 4.9 mg/dL

**Q.** What about the Hb (After 1–3 months) of the same molecule?
**A.** 13.4 ± 0.4 g/dL

**Q.** What about the Hct (After 1–3 months) of the same molecule?
**A.** 42.4±2.0 %

**Q.** What about the Plt (After 1–3 months) of the same molecule?
**A.** 303.0±118.8 ×10^6/mL

**Q.** And the RBC (After 1–3 months)?
**A.** 5.7±0.1 ×10^6/mL

**Q.** What about the Total bilirubin (After 1–3 months) of the same molecule?
**A.** 0.2 ± 0.1 mg/dL

**Q.** And the Total protein (After 1–3 months)?
**A.** 6.1 ± 0.9 g/dL

**Q.** What about the WBC (After 1–3 months) of the same molecule?
**A.** 4.8±0.5 ×10^3/mL

**Q.** And the ALP (After imaging)?
**A.** 169.4±61.3 IU/L

**Q.** And the ALT (After imaging)?
**A.** 34.2±12.2 IU/L

**Q.** And the AST (After imaging)?
**A.** 29.0±5.6 IU/L

**Q.** What about the Albumin (After imaging) of the same molecule?
**A.** 3.9 ± 0.8 g/dL

**Q.** What about the BUN (After imaging) of the same molecule?
**A.** 17.9 ± 4.6 mg/dL

**Q.** And the Hb (After imaging)?
**A.** 13.1 ± 1.2 g/dL

**Q.** And the Hct (After imaging)?
**A.** 41.4±2.5 %

**Q.** And the Plt (After imaging)?
**A.** 328.1±54.2 ×10^6/mL

**Q.** And the RBC (After imaging)?
**A.** 5.7±0.6 ×10^6/mL

**Q.** What about the Total bilirubin (After imaging) of the same molecule?
**A.** 0.3 ± 0.1 mg/dL

**Q.** And the Total protein (After imaging)?
**A.** 7.0 ± 0.5 g/dL

**Q.** What about the WBC (After imaging) of the same molecule?
**A.** 6.8± 1.1 ×10^3/mL

**Q.** What about the “changes in CBC, blood chemistry, liver enzymes, renal function” value (before vs after 3 h and 1–3 months) of the same molecule?
**A.** no statistically significant changes; also recorded: no significant changes in CBC, liver enzymes, or renal function

From PMC3902791 (Molecular imaging and biology : MIB : the official …, 2012)
